Reference: US20230079045A1 (priority 2019, published 2023)

Experiments:
Assay type in all cases: cell-based, influenza virus
IFVA/Weiss/43 = assay: cytopathic effect (CPE) antiviral test in MDCK cells, IFVA/Weiss/43; details: unidentified influenza virus, MDCK, 120 h, read-out: EC50(IFVA/Weiss/43), MDCK cells, CPE method, CCK-8 cell viability, 5 days
IFVA/Mal/302/54 = assay: cytopathic effect (CPE) antiviral test in MDCK cells, IFVA/Mal/302/54; details: unidentified influenza virus, MDCK, 120 h, read-out: EC50(IFVA/Mal/302/54), MDCK cells, CPE method, CCK-8 cell viability, 5 days
IFV A/PR/8/34 = assay: cytopathic effect (CPE) antiviral test in MDCK cells, IFV A/PR/8/34; details: unidentified influenza virus, PR/8, MDCK, 120 h, read-out: EC50(IFV A/PR/8/34)

Structure (SMILES) | EC50 (IFVA/Weiss/43) | EC50 (IFVA/Mal/302/54) | EC50 (IFV A/PR/8/34)
O=C(Nc1ccc2oc(-c3ccnc(C(=O)N4CCN([C@H](c5ccccc5)c5nnn(C(F)F)n5)CC4)c3)nc2c1)[C@@H]1C[C@@H]1F [Compound 75, (1S,2S)—N-(2-(2-(4-((R)-(2-(difluoromethyl)-2H-tetrazol-5-yl)(phenyl)methyl)piperazine-1-carbonyl)pyridin-4-yl)benzo[d]oxazol-5-yl)-2-fluorocyclopropane-1-carboxamide] | 2 nM | 6 nM | 2 nM
Cc1nnn(C(c2ccccc2)C2CCN(C(=O)c3cc(-c4nc5cc(NC(=O)[C@@H]6C[C@@H]6F)ccc5o4)ccn3)CC2)n1 (stereo partly drawn) [Compound 85, (1S,2S)-2-fluoro-N-(2-(2-(4-((5-methyl-2H-tetrazol-2-yl)(phenyl)methyl)piperidine-1-carbonyl)pyridin-4-yl)benzo[d]oxazol-5-yl)cyclopropanecarboxamide] | 4 nM | 4 nM | 4 nM
